Results as given in ChEMBL document CHEMBL4393717, “Development of novel human lactate dehydrogenase A inhibitors: High-throughput screening, synthesis, and biological evaluations” (Eur J Med Chem, 2019).
Active and inactive are the calls of the source. The rule behind the calls is not given here.

Assays:
[1] = target: T1, L-lactate dehydrogenase A chain (Homo sapiens, UniProt P00338); experiment: Inhibition of recombinant human full-length N-terminal His-tagged LDHA (1 to 332 residues) expressed in Escherichia coli using sodium pyruvate as substrate incubated for 10 mins
[2] = tested on: A549; experiment: Antiproliferative activity against human A549 cells assessed as reduction in cell viability at incubated for 72 hrs by MTT assay; assay type: functional, cell-based; conditions: A549, 72 h
[3] = target: T1, L-lactate dehydrogenase A chain; experiment: Inhibition of recombinant human full-length N-terminal His-tagged LDHA (1 to 332 residues) expressed in Escherichia coli at 10 uM using sodium pyruvate as substrate incubated for 10 mins relative to control
[4] = tested on: A549; experiment: Antiproliferative activity against human A549 cells assessed as reduction in cell viability at 50 uM incubated for 72 hrs by MTT assay relative to control; assay type: functional; conditions: for inhibition at 50 µM: A549, 72 h
[5] = tested on: MIA PaCa-2; experiment: Antiproliferative activity against human MIAPaCa2 cells assessed as reduction in cell viability at 50 uM incubated for 72 hrs by MTT assay relative to control; assay type: functional; conditions: for inhibition at 50 µM: MIA PaCa-2, 72 h
[6] = tested on: MIA PaCa-2; experiment: Antiproliferative activity against human MIAPaCa2 cells assessed as reduction in cell viability incubated for 72 hrs by MTT assay; assay type: functional, cell-based; conditions: MIA PaCa-2, 72 h
[7] = tested on: MCF7; experiment: Antiproliferative activity against human MCF7 cells assessed as reduction in cell viability at 50 uM incubated for 72 hrs by MTT assay relative to control; assay type: functional; conditions: for inhibition at 50 µM: MCF7, 72 h
[8] = tested on: MIA PaCa-2; experiment: Cell cycle arrest in human MIAPaCa2 cells assessed as accumulation at G1 phase at 5 uM incubated for 24 hrs by propidium iodide staining based flow cytometry (reference value: 56.01%); assay type: functional
[9] = tested on: MIA PaCa-2; experiment: Induction of apoptosis in human MIAPaCa2 cells assessed as late apoptotic cells at 5 uM incubated for 12 hrs by annexin V and propidium iodide staining based flow cytometry analysis (reference value: 3.21 %); assay type: functional
[10] = tested on: MIA PaCa-2; experiment: Inhibition of colony formation in human MIAPaCa2 cells at 0.5 uM treated for 3 days and supplemented with fresh medium with out compound every 3 days measured after 15 days by crystal violet staining based assay; assay type: functional, cell-based
[11] = tested on: MIA PaCa-2; experiment: Cell cycle arrest in human MIAPaCa2 cells assessed as accumulation at G2 phase at 5 uM incubated for 24 hrs by propidium iodide staining based flow cytometry (reference value: 31.00%); assay type: functional
[12] = tested on: MIA PaCa-2; experiment: Cell cycle arrest in human MIAPaCa2 cells assessed as accumulation at S phase at 5 uM incubated for 24 hrs by propidium iodide staining based flow cytometry (reference value: 12.99%); assay type: functional
[13] = tested on: MIA PaCa-2; experiment: Induction of apoptosis in human MIAPaCa2 cells assessed as early apoptotic cells at 5 uM incubated for 12 hrs by annexin V and propidium iodide staining based flow cytometry analysis (reference value: 0.40 %); assay type: functional
[14] = tested on: MIA PaCa-2; experiment: Induction of apoptosis in human MIAPaCa2 cells assessed as necrotic cells at 5 uM incubated for 12 hrs by annexin V and propidium iodide staining based flow cytometry analysis (reference value: 1.54 %); assay type: functional
[15] = tested on: MIA PaCa-2; experiment: Induction of apoptosis in human MIAPaCa2 cells assessed as viable cells at 5 uM incubated for 12 hrs by annexin V and propidium iodide staining based flow cytometry analysis (reference value: 94.85 %); assay type: functional; conditions: MIA PaCa-2, 12 h, read-out: Activity

Compound	EC50 [1]	IC50 [2]	inhibition [3]	inhibition at 50 µM [4]	inhibition at 50 µM [5]	IC50 [6]	inhibition at 50 µM [7]	other results
Cc1ncn(CC(=O)N2CCC(Oc3cncc(N(C)C)n3)C2)c(=O)c1C (stereo not given)	2.9 µM	> 50 µM	> 90%	47.8%	25.8%	> 50 µM	50.1%	
NC(=O)C(=O)O [SODIUM OXAMATE]		45800 µM				18900 µM		
COc1cccc2c1OC(C(=O)N1CCC(Cn3ccnc3C(C)C)CC1)C2 (stereo not given)	7.5 µM	> 50 µM	> 90%			> 50 µM		inhibition [4]: inactive; inhibition [5]: inactive; inhibition [7]: inactive
O=C1N[C@](c2ccc(N3CCOCC3)cc2)(c2ccsc2)CC(O)=C1Sc1ccccc1Cl		0.36 µM				0.48 µM		
O=C(c1ccco1)N1CCN(Cc2cc(=O)c(OCc3cccc(Cl)c3)co2)CC1	0.27 µM	5.7 µM				3.8 µM		
O=C(c1ccco1)N1CCN(Cc2cc(=O)c(OCc3ccccc3Cl)co2)CC1	12.4 µM	> 50 µM				> 50 µM		
CC(=O)c1ccc(NC(=O)COc2cc(C)nc(C3CCC(C)CC3)n2)cc1 (stereo not given)	1.2 µM	22.7 µM	> 90%	45.8%	75.6%	29.8 µM	85.7%	
Cc1ccccc1OCC(=O)NCc1nn(C2CCCC2)c2c1COCC2	5.7 µM	> 50 µM	> 90%			> 50 µM		inhibition [4]: inactive; inhibition [5]: inactive; inhibition [7]: inactive
O=C(c1ccco1)N1CCN(Cc2cc(=O)c(OCc3ccc(F)cc3)co2)CC1	9.7 µM	> 50 µM				> 50 µM		
O=C(Cn1cnc2ccccc2c1=O)N1CCN(C(=O)c2cc3n(n2)CCCC3)CC1	0.89 µM	> 50 µM	> 90%	45.6%	58.7%	> 50 µM	25.7%	
N#Cc1cccnc1N1CCC(CNC(=O)C(=O)Nc2cccc(C(F)(F)F)c2)CC1	1.8 µM	> 50 µM	> 90%	45.7%	56.8%	> 50 µM	38.7%	
COc1cccc2c1C(=O)c1c(O)c3c(c(O)c1C2=O)C[C@@](O)(C(=O)CO)C[C@@H]3O[C@H]1C[C@H](N)[C@H](O)[C@H](C)O1 [DOXORUBICIN]								Activity [8]: 40.09%; Activity [9]: 15.66%; inhibition [10]: Active; Activity [11]: 54.37%; Activity [12]: 5.54%; Activity [13]: 2.26%; Activity [14]: 7.4%; viability at 5 µM [15]: 74.7%
O=C(CC1CSc2nc3c(cnn3-c3ccccc3)c(=O)n21)NCCCn1ccnc1 (stereo not given)	7.8 µM	> 50 µM	> 90%	36.9%	15.8%	> 50 µM	14.7%	
COc1cccc(N2CCN(C3CCN(C(=O)c4cnn5c4OCCC5)CC3)CC2)c1	3.4 µM	> 50 µM	> 90%	25.8%	12.4%	> 50 µM	17.9%	
O=C(NCC(=O)N1CCCC(Cc2nc(C3CC3)no2)C1)c1ccccc1 (stereo not given)	3.3 µM	> 50 µM	> 90%	25.8%	12.5%	> 50 µM	17.9%	
COc1cc(CNC(=O)c2c(OC)cc(=O)n3c2CCC3)cc(OC)c1OC	4.58 µM	> 50 µM	> 90%			> 50 µM		inhibition [4]: inactive; inhibition [5]: inactive; inhibition [7]: inactive
O=C(c1ccco1)N1CCN(Cc2cc(=O)c(OCc3c(F)cccc3Cl)co2)CC1	5.6 µM	> 50 µM				> 50 µM		
Cc1ncn(CC(=O)N2CC(Oc3cc(C)n(C4CC4)c(=O)c3)C2)c(=O)c1C	6.4 µM	> 50 µM	> 90%	4.5%		> 50 µM	12.3%	
O=C(c1ccco1)N1CCN(Cc2cc(=O)c(OCc3ccccc3)co2)CC1	0.68 µM	14.7 µM	> 90%	84.7%	95.6%	12.5 µM	93.4%	
COc1ccccc1OCC(=O)NC1CCC(Oc2nc(C)cc(C)n2)CC1 (stereo not given)	4.1 µM	> 50 µM	> 90%	5.9%	25.7%	> 50 µM	9.7%	
Cc1cc(N2CCC(CNS(=O)(=O)c3cccc4cccnc34)CC2)ccn1	0.34 µM	> 50 µM	> 90%	14.7%	25.8%	> 50 µM		
O=C(c1ccco1)N1CCN(Cc2cc(=O)c(OCc3cccc(F)c3)co2)CC1	3.7 µM	18.9 µM				24.5 µM		
O=C(CCC1CCCCC1)N1CCN(c2ncnc3c2nnn3Cc2ccccc2)CC1	2.14 µM	> 50 µM	> 90%	45.6%	21.4%	> 50 µM	22.3%	
